Experimental data published in the NIST ThermoML archive (doi:10.1016/j.jct.2003.09.004).

Legend:
[1] = 298.15 K, 101.33 kPa, Liquid
[2] = excess molar enthalpy (molar enthalpy of mixing); xn = mol fraction of the nth substance listed; conditions: 298.15 K, 101.33 kPa, Liquid, Flow calorimetry

CC(C)C(C)C [2,3-dimethylbutane]
Conditions | mass density [kg/m3]
[1] | 662.36

C=CCCCC [hex-1-ene] + CC(C)CC(C)(C)C
[2]
Conditions | excess molar enthalpy [kJ/mol]
x1 = 0.0501 | 0.0101
x1 = 0.1001 | 0.0188
x1 = 0.1501 | 0.0271
x1 = 0.2075 | 0.035
x1 = 0.2499 | 0.0405
x1 = 0.2998 | 0.0454
x1 = 0.35 | 0.0499
x1 = 0.3998 | 0.0534
x1 = 0.4498 | 0.0543
x1 = 0.4998 | 0.0559
x1 = 0.5497 | 0.0559
x1 = 0.5997 | 0.0548
x1 = 0.6499 | 0.0525
x1 = 0.6997 | 0.0489
x1 = 0.75 | 0.044
x1 = 0.7994 | 0.0379
x1 = 0.8498 | 0.031
x1 = 0.9 | 0.0219
x1 = 0.95 | 0.0114

CC(C)CC(C)(C)C [2,2,4-trimethylpentane]
Conditions | mass density [kg/m3]
[1], Vibrating tube method | 688.03

CCC(C)CC [3-methylpentane]
Conditions | mass density [kg/m3]
[1] | 659.94

C=CCCCC [hex-1-ene]
Conditions | mass density [kg/m3]
[1] | 668.73

CCC(C)CC [3-methylpentane] + C=CCCCC
[2]
Conditions | excess molar enthalpy [kJ/mol]
x2 = 0.0501 | 0.0102
x2 = 0.1001 | 0.02
x2 = 0.1533 | 0.0287
x2 = 0.2001 | 0.0352
x2 = 0.2501 | 0.0413
x2 = 0.3 | 0.0463
x2 = 0.3495 | 0.05
x2 = 0.3995 | 0.0527
x2 = 0.45 | 0.0542
x2 = 0.4995 | 0.0549
x2 = 0.5498 | 0.0541
x2 = 0.5997 | 0.0524
x2 = 0.6501 | 0.0496
x2 = 0.6994 | 0.0457
x2 = 0.7509 | 0.0407
x2 = 0.7999 | 0.0351
x2 = 0.85 | 0.0276
x2 = 0.9 | 0.019
x2 = 0.95 | 0.00983

CCC(C)(C)C [2,2-dimethylbutane]
Conditions | mass density [kg/m3]
[1] | 644.92

CCCC(C)C [2-methylpentane] + C=CCCCC
[2]
Conditions | excess molar enthalpy [kJ/mol]
x2 = 0.0501 | 0.0107
x2 = 0.1 | 0.0207
x2 = 0.1504 | 0.0301
x2 = 0.2 | 0.0378
x2 = 0.2499 | 0.0444
x2 = 0.3001 | 0.0496
x2 = 0.3495 | 0.0534
x2 = 0.4001 | 0.0566
x2 = 0.4498 | 0.058
x2 = 0.4997 | 0.0587
x2 = 0.5501 | 0.0582
x2 = 0.6 | 0.0564
x2 = 0.6501 | 0.0534
x2 = 0.6993 | 0.0495
x2 = 0.7503 | 0.0436
x2 = 0.8001 | 0.0393
x2 = 0.8575 | 0.0288
x2 = 0.9 | 0.0215
x2 = 0.95 | 0.0112

CCCC(C)C [2-methylpentane]
Conditions | mass density [kg/m3]
[1] | 650.22

CC(C)C(C)C [2,3-dimethylbutane] + C=CCCCC
[2]
Conditions | excess molar enthalpy [kJ/mol]
x2 = 0.05 | 0.0149
x2 = 0.1001 | 0.0288
x2 = 0.1535 | 0.0422
x2 = 0.2 | 0.0521
x2 = 0.2508 | 0.0614
x2 = 0.2997 | 0.068
x2 = 0.3499 | 0.0734
x2 = 0.3997 | 0.0776
x2 = 0.4498 | 0.0795
x2 = 0.4998 | 0.0792
x2 = 0.5498 | 0.078
x2 = 0.5996 | 0.0749
x2 = 0.6497 | 0.0706
x2 = 0.6997 | 0.0646
x2 = 0.7498 | 0.0568
x2 = 0.8001 | 0.0489
x2 = 0.8501 | 0.0387
x2 = 0.9 | 0.0267
x2 = 0.9499 | 0.0139

CCC(C)(C)C [2,2-dimethylbutane] + C=CCCCC
[2]
Conditions | excess molar enthalpy [kJ/mol]
x2 = 0.05 | 0.012
x2 = 0.1 | 0.0234
x2 = 0.1576 | 0.0347
x2 = 0.2005 | 0.0418
x2 = 0.2501 | 0.0485
x2 = 0.3002 | 0.054
x2 = 0.3501 | 0.0579
x2 = 0.4002 | 0.0605
x2 = 0.4507 | 0.0625
x2 = 0.4999 | 0.0624
x2 = 0.5498 | 0.0616
x2 = 0.5996 | 0.0595
x2 = 0.6496 | 0.0563
x2 = 0.7 | 0.0519
x2 = 0.7501 | 0.0456
x2 = 0.7999 | 0.0407
x2 = 0.85 | 0.0334
x2 = 0.9 | 0.0219
x2 = 0.95 | 0.0114
